How the values were obtained:
human SLC6A19 and TMEM27 [1] = target: T1, human SLC6A19 and TMEM27 (Homo sapiens, UniProt Q695T7); test: 13C6,15N-isoleucine uptake in CHO cells with doxycycline-inducible expression of human SLC6A19 and TMEM27, RapidFire mass spectrometry (Example B-2); format: cell-based; conditions: read-out: SLC6A19_RapidFire Uptake Assay IC50
T1 construct: expressed in transfected cells
T1 sequence (Q695T7 1-634): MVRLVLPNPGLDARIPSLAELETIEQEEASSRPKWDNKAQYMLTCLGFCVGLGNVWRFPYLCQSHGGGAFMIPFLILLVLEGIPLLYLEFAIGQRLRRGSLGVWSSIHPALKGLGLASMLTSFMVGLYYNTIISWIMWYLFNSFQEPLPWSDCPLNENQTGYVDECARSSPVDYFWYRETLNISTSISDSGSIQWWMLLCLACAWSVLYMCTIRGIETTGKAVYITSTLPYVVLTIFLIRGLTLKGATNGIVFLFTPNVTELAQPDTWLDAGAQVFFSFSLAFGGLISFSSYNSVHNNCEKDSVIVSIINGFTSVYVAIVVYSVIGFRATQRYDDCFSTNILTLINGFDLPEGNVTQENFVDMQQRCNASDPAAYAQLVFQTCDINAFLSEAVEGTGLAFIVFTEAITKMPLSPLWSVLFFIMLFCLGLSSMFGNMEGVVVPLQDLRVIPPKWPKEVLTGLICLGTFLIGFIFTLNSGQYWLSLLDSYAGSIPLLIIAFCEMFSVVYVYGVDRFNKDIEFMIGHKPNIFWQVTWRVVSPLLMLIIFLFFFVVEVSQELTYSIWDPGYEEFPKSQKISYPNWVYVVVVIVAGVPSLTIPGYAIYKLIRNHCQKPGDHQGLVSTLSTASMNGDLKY
T1 sequence (Q9HBJ8 15-222 partner): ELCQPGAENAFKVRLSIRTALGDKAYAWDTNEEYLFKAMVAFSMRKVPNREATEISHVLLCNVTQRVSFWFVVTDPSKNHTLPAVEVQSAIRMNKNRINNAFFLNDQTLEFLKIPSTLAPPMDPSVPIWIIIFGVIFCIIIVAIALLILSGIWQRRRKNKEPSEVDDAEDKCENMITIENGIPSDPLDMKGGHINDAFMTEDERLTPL
How it was run: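 CHO cells induced overnight with doxycycline to express human SLC6A19 plus TMEM27; 20 min preincubation with compound (10-point 2-fold series, duplicate) at 37 °C in HEPES buffer pH 7.2, then 20 min with 13C6,15N-isoleucine. Intracellular label quantified by RapidFire MS against 13C-leucine standard; positive control defined 100% inhibition.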

human SLC6A19 and TMEM27 [2] = target: T1, human SLC6A19 and TMEM27; test: Radiolabelled (3H) leucine uptake in CHO cells with doxycycline-inducible expression of human SLC6A19 and TMEM27 (Example B-1); format: cell-based; conditions: CHO cells with doxycycline-inducible expression of human SLC6A19 and TMEM27, read-out: SLC6A19_Radioligand Uptake Assay IC50
How it was run: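 CHO cells were induced with doxycycline for 18 h at 37 °C, washed in HBSS, then exposed to compounds for 1 h: 8-point, 3-fold dilutions in duplicate, 0.5% DMSO final. Uptake measured by scintillation counting after 2 h shaking. Activity normalized with positive control as 0% and DMSO as 100%.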

| SMILES | IC50 (human SLC6A19 and TMEM27 [1]) | IC50 (human SLC6A19 and TMEM27 [2]) |
| --- | --- | --- |
| CC1(C(=O)NCc2cc3c(F)cc(OCc4cscn4)cc3[nH]2)CC1 [Compound 29, N-((4-fluoro-6-(thiazol-4-ylmethoxy)-1H-indol-2-yl)methyl)-1-methylcyclopropane-1-carboxamide] | 45 nM | 60 nM |
| CC1(C(=O)NCc2cc3ccc(SCc4ccon4)cc3[nH]2)CC1 [Compound 196, N-((6-((isoxazol-3-ylmethyl)thio)-1H-indol-2-yl)methyl)-1-methylcyclopropanecarboxamide] | 460 nM | 207 nM |
| Cc1csc(COc2cc3[nH]c(CNC(=O)C4(C)CC4)cc3cc2Cl)n1 [Compound 24, N-((5-chloro-6-((4-methylthiazol-2-yl)methoxy)-1H-indol-2-yl)methyl)-1-methylcyclopropane-1-carboxamide] | 222 nM | 412 nM |
| CC(=O)NCc1cc2cc(F)c(OCc3cccc(F)n3)cc2[nH]1 [Compound 226, N-((5-fluoro-6-((6-fluoropyridin-2-yl)methoxy)-1H-indol-2-yl)methyl)acetamide] | 960 nM | 1120 nM |
| CC1(C(=O)NCc2cc3cc(Cl)c(NCc4ccon4)cc3[nH]2)CC1 [Compound 151, N-((5-chloro-6-((isoxazol-3-ylmethyl)amino)-1H-indol-2-yl)methyl)-1-methylcyclopropane-1-carboxamide] | 173 nM | 182 nM |
| CC1(C(=O)NCc2cc3ccc(OCc4c[nH]nn4)cc3[nH]2)CC1 [Compound 194, N-((6-((1H-1,2,3-triazol-4-yl)methoxy)-1H-indol-2-yl)methyl)-1-methylcyclopropane-1-carboxamide] | 4940 nM | 6780 nM |
| O=C(NCc1cc2cc(F)c(OCc3cscn3)cc2[nH]1)C1CC1 [Compound 136, N-((5-fluoro-6-(thiazol-4-ylmethoxy)-1H-indol-2-yl)methyl)cyclopropanecarboxamide] | 38 nM | 83 nM |
| CNC(=O)NCc1cc2cc(Cl)c(OCc3cc(C)no3)cc2[nH]1 [Compound 211, 1-((5-chloro-6-((3-methylisoxazol-5-yl)methoxy)-1H-indol-2-yl)methyl)-3-methylurea] | 38.1 nM | 87.7 nM |
| CC(=O)NCc1cc2cc(C)c(OCc3ccon3)cc2[nH]1 [Compound 235, N-((6-(isoxazol-3-ylmethoxy)-5-methyl-1H-indol-2-yl)methyl)acetamide] | 521 nM | 283 nM |
| O=C(NCc1cc2cc(F)c(OCc3ccon3)cc2[nH]1)C1(F)CC1 [Compound 233, 1-fluoro-N-((5-fluoro-6-(isoxazol-3-ylmethoxy)-1H-indol-2-yl)methyl)cyclopropane-1-carboxamide] | 57 nM | 112 nM |
| CC1CN(C(=O)NCc2cc3cc(F)c(OCc4cscn4)cc3[nH]2)C1 [Compound 357, N-((5-fluoro-6-(thiazol-4-ylmethoxy)-1H-indol-2-yl)methyl)-3-methylazetidine-1-carboxamide] | 434 nM | 413 nM |
| CCC(=O)NCc1cc2cc(F)c(OCc3cscn3)cc2[nH]1 [Compound 126, N-((5-fluoro-6-(thiazol-4-ylmethoxy)-1H-indol-2-yl)methyl)propionamide] | 171 nM | 97 nM |
| CC(=O)NCc1cc2cc(Cl)c(OCc3cc(C)no3)cc2[nH]1 [Compound 218, N-((5-chloro-6-((3-methylisoxazol-5-yl)methoxy)-1H-indol-2-yl)methyl)acetamide] | 27.5 nM | 69.4 nM |
| CC1(C(=O)NCc2cc3cc(Cl)c(OCc4c(F)ccnc4Cl)cc3[nH]2)CC1 [Compound 351, N-((5-chloro-6-((2-chloro-4-fluoropyridin-3-yl)methoxy)-1H-indol-2-yl)methyl)-1-methylcyclopropane-1-carboxamide] | 1540 nM | 2470 nM |
| CC1(C(=O)NCc2cc3cc(Cl)c(OCC4CCC4)cc3[nH]2)CC1 [Compound 634, N-((5-chloro-6-(cyclobutylmethoxy)-1H-indol-2-y1)methyl)-1-methylcyclopropane-1-carboxamide] | 168 nM | 404 nM |
| CN(Cc1cn[nH]c1)C(=O)NCc1cc2ccc(OCc3cscn3)cc2[nH]1 [Compound 628, 1-((1H-pyrazol-4-yl)methyl)-1-methyl-3-((6-(thiazol-4-ylmethoxy)-1H-indol-2-yl)methyl)urea] | 3020 nM | 2670 nM |
| CC1(C(=O)NCc2cc3cc(Cl)c(OCc4cc5ccccn5n4)cc3[nH]2)CC1 [Compound 392, N-((5-chloro-6-(pyrazolo[1,5-a]pyridin-2-ylmethoxy)-1H-indol-2-yl)methyl)-1-methylcyclopropane-1-carboxamide] | 1620 nM | 2830 nM |
| CCC(=O)NCc1cc2cc(F)c(OCc3cc(C)no3)cc2[nH]1 [Compound 548, N-((5-fluoro-6-((3-methylisoxazol-5-yl)methoxy)-1H-indol-2-yl)methyl)propionamide] | 54.5 nM | 100 nM |
| CC1(C(=O)NCc2cc3cc(C4CC4)c(OCc4ccon4)cc3[nH]2)CC1 [Compound 342, N-((5-cyclopropyl-6-(isoxazol-3-ylmethoxy)-1H-indol-2-yl)methyl)-1-methylcyclopropane-1-carboxamide] | 215 nM | 258 nM |
| CC1(C(=O)NCc2cc3cc(F)c(CCc4ccon4)cc3[nH]2)CC1 [Compound 592, N-((5-fluoro-6-(2-(isoxazol-3-yl)ethyl)-1H-indol-2-yl)methyl)-1-methylcyclopropane-1-carboxamide] | 93.1 nM | 163 nM |

Results, then the compound that gave them:

| IC50 (human SLC6A19 and TMEM27 [1]) | IC50 (human SLC6A19 and TMEM27 [2]) | SMILES |
| --- | --- | --- |
| 1500 nM | 566 nM | Cn1ncc(COc2cc3[nH]c(CNC(=O)C4CC4)cc3cc2F)n1 [Compound 433, N-((5-fluoro-6-((2-methyl-2H-1,2,3-triazol-4-yl)methoxy)-1H-indol-2-yl)methyl)cyclopropanecarboxamide] |
| 30.9 nM | 104 nM | COC(=O)NCc1cc2cc(Cl)c(OCc3cscn3)cc2[nH]1 [Compound 624, methyl ((5-chloro-6-(thiazol-4-ylmethoxy)-1H-indol-2-yl)methyl)carbamate] |
| 172 nM | 347 nM | Cn1ncc(COc2cc3[nH]c(CNC(=O)N4CCCC4)cc3cc2Cl)n1 [Compound 406, N-((5-chloro-6-((2-methyl-2H-1,2,3-triazol-4-yl)methoxy)-1H-indol-2-yl)methyl)pyrrolidine-1-carboxamide] |
| 257 nM | 195 nM | CC(C)C(=O)NCc1cc2cc(Cl)c(OCc3cocn3)cc2[nH]1 [Compound 500, N-((5-chloro-6-(oxazol-4-ylmethoxy)-1H-indol-2-yl)methyl)isobutyramide] |
| 115 nM | 315 nM | O=C(NCc1cc2cc(Cl)c(OCc3cccc(F)n3)cc2[nH]1)N1CCCC1 [Compound 425, N-((5-chloro-6-((6-fluoropyridin-2-yl)methoxy)-1H-indol-2-yl)methyl)pyrrolidine-1-carboxamide] |
| 397 nM | 201 nM | CC1(C(=O)NCc2cc3cc(Cl)c(OCc4cc(C5CC5)on4)cc3[nH]2)CC1 [Compound 100, N-((5-chloro-6-((5-cyclopropylisoxazol-3-yl)methoxy)-1H-indol-2-yl)methyl)-1-methylcyclopropane-1-carboxamide] |
| 239 nM | 276 nM | O=C(NCc1cc2cc(Cl)c(NCc3ccon3)cc2[nH]1)N1CCCC1 [Compound 413, N-((5-chloro-6-((isoxazol-3-ylmethyl)amino)-1H-indol-2-yl)methyl)pyrrolidine-1-carboxamide] |
| 297 nM | 318 nM | Cc1cc(COc2cc3[nH]c(CNC(=O)N4CCC4)cc3cc2F)on1 [Compound 481, N-((5-fluoro-6-((3-methylisoxazol-5-yl)methoxy)-1H-indol-2-yl)methyl)azetidine-1-carboxamide] |
| 164 nM | 295 nM | Cc1cc2cc(CNC(=O)N3CCCC3)[nH]c2cc1OCc1cscn1 [Compound 531, N-((5-methyl-6-(thiazol-4-ylmethoxy)-1H-indol-2-yl)methyl)pyrrolidine-1-carboxamide] |

Reference: patent US20240199546A1, “INHIBITORS OF SOLUTE CARRIER FAMILY 6A MEMBER 19 (SLC6A19) AND METHODS OF USE THEREOF” (Maze Therapeutics, Inc., priority 2022, published 2024)
